Assay results as given in US12077503B2, “Substituted cyclic amides and their use as herbicides” (FMC CORPORATION, priority 2015, dated 2024).
Where two headings read alike, the source gives them in different places.

Tests used:
[1] = tested on: Galium (catchweed bedstraw, Galium aparine); assay: Test A postemergence; format: in vivo; details: Galium, post-emergence, 240 h, 125 g ai/ha, postemergence; visual injury after approximately 10 d; 0 to 100 scale (0 no effect, 100 complete control); read-out: Plant response rating, Galium
Method in brief: (§1)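 Visual injury scores from 0, no effect, to 100, complete control, were assigned versus untreated controls roughly 10 d after treatment in the greenhouse. Test chemicals, formulated with surfactant in a non-phytotoxic solvent, were applied to planted seeds as a preemergence soil spray or postemergence to one- to two-leaf plants 2 to 10 cm tall, in loam–sand soil.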

[2] = tested on: barnyardgrass (Echinochloa crus-galli); assay: Test A postemergence; format: in vivo; details: Echinochloa crus-galli, post-emergence, 240 h; for pest or weed control at 125 g/ha: 125 g ai/ha; for pest or weed control at 500 g/ha: 500 g ai/ha, visual injury, approx. 10 d
Method in brief: as §1

corn (Zea mays) = assay: Test A postemergence; format: in vivo; details: Zea mays, post-emergence, 240 h; for Corn plant response rating (crop injury, 0 = no effect, 100 = complete kill) at 125 g/ha / plant injury at 125 g/ha: 125 g ai/ha; for Corn plant response rating (crop injury, 0 = no effect, 100 = complete kill) at 125 g/ha: postemergence, visual injury after approximately 10 d; for Corn plant response rating (crop injury, 0 = no effect, 100 = complete kill) at 125 g/ha / Corn plant response rating (crop injury, 0 = no effect, 100 = complete kill) at 500 g/ha: 0 to 100 scale (0 no effect, 100 complete control); for plant injury at 125 g/ha / Corn plant response rating (crop injury, 0 = no effect, 100 = complete kill) at 500 g/ha: Postemergence; for plant injury at 125 g/ha: visual rating about 10 d after treatment, read-out: Corn plant response rating (0 to 100 scale); for Corn plant response rating (crop injury, 0 = no effect, 100 = complete kill) at 500 g/ha: 500 g ai/ha, visual injury, approx. 10 d
Method in brief: as §1

[3] = tested on: giant foxtail (Setaria faberii); assay: Test A postemergence; format: in vivo; details: Setaria faberi, post-emergence, 240 h; for pest or weed control at 125 g/ha: 125 g ai/ha; for pest or weed control at 500 g/ha: 500 g ai/ha, visual injury, approx. 10 d
Method in brief: as §1

[4] = tested on: pigweed (Amaranthus retroflexus); assay: Test A postemergence; format: in vivo; details: Amaranthus retroflexus, post-emergence, 240 h; for pest or weed control at 125 g/ha: 125 g ai/ha; for pest or weed control at 500 g/ha: 500 g ai/ha, visual injury, approx. 10 d
Method in brief: as §1

[5] = postemergence, visual injury after approximately 10 d, 0 to 100 scale (0 no effect, 100 complete control), read-out: Plant response rating, Barnyardgrass
[6] = postemergence, visual injury after approximately 10 d, 0 to 100 scale (0 no effect, 100 complete control), read-out: Plant response rating, Foxtail, Giant
[7] = postemergence, visual injury after approximately 10 d, 0 to 100 scale (0 no effect, 100 complete control), read-out: Plant response rating, Pigweed
[8] = Postemergence, visual rating about 10 d after treatment, read-out: Barnyardgrass plant response rating (0 to 100 scale, 0 no effect, 100 complete control)
[9] = Postemergence, 0 to 100 scale (0 no effect, 100 complete control), read-out: Plant response rating, Barnyardgrass
[10] = Postemergence, visual rating about 10 d after treatment, read-out: Foxtail, Giant plant response rating (0 to 100 scale)
[11] = Postemergence, 0 to 100 scale (0 no effect, 100 complete control), read-out: Plant response rating, Foxtail, Giant
[12] = Postemergence, visual rating about 10 d after treatment, read-out: Pigweed plant response rating (0 to 100 scale)
[13] = Postemergence, 0 to 100 scale (0 no effect, 100 complete control), read-out: Plant response rating, Pigweed

| melting point [°C] | Structure (SMILES) | pest or weed control at 125 g/ha [1] [%] | pest or weed control at 125 g/ha [2, 5] [%] | Corn plant response rating (crop injury, 0 = no effect, 100 = complete kill) at 125 g/ha (corn (Zea mays)) [%] | pest or weed control at 125 g/ha [3, 6] [%] | pest or weed control at 125 g/ha [4, 7] [%] | pest or weed control at 125 g/ha [2, 8] [%] | pest or weed control at 500 g/ha [2, 9] [%] | plant injury at 125 g/ha (corn (Zea mays)) [%] | Corn plant response rating (crop injury, 0 = no effect, 100 = complete kill) at 500 g/ha (corn (Zea mays)) [%] | pest or weed control at 125 g/ha [3, 10] [%] | pest or weed control at 500 g/ha [3, 11] [%] | pest or weed control at 125 g/ha [4, 12] [%] | pest or weed control at 500 g/ha [4, 13] [%] |
| --- | --- | --- | --- | --- | --- | --- | --- | --- | --- | --- | --- | --- | --- | --- |
| 227 to 231 | O=C1NC[C@H](c2cnc(C(F)(F)F)nc2)[C@H]1C(=O)Nc1ccccc1F [Compound 741] | 0 | 0 | 0 | 0 | 0 |  |  |  |  |  |  |  |  |
| 146 to 150 | CN1CC(c2cccc(OC/C=C/Cl)c2)C(C(=O)Nc2cccc(F)c2F)C1=O (stereo not drawn) [Compound 772] | 0 | 0 | 0 | 30 | 0 |  |  |  |  |  |  |  |  |
| 147 to 149 | O=C1NCC(c2ccccc2)C1C(=O)Nc1cc(F)ccc1F (stereo not drawn) [Compound 1359] |  |  |  |  |  | 0 | 0 | 0 | 0 | 0 | 0 | 0 | 0 |
| 221 to 223 | O=C1NCC(c2ccccc2)C1C(=O)Nc1ccc(C(F)(F)F)cc1 (stereo not drawn) [Compound 1362] |  |  |  |  |  | 0 | 0 | 0 | 0 | 0 | 0 | 0 | 0 |
